# Measured values from EP4803511A1, “SMALL MOLECULE COMPOUND HAVING SULFONIC ACID OR SULFINIC ACID LACTONE STRUCTURE, COMPOSITION AND USE THEREOF” (Hangzhou Phecdamed Co., Ltd., priority 2023, dated 2025).
# Tests used:
# COL3A1 = assay: Collagen III gene expression in HaCaT human immortalized keratinocytes; assay type: cell-based; settings: 24 hrs, dose-dependent
# Excerpt: (§1) Skin fragility is partly attributed to changes in hemidesmosomes and the expression downregulation of various collagen proteins (Collagen I, III, IV, VII) or laminins (such as LN-5) at the dermal-epidermal junction. LN-5 has been proven to be a component of anchoring fibers in the basement membrane of the skin, cornea, conjunctiva, and other tissues. LN-5 participates in cell-cell interactions through the mediation of integrins and proteoglycans, thereby playing a crucial role in cell adhesion, growth, migration, and differentiation. The appearance of wrinkles is closely related to the normal synthesis and expression of collagen and laminins. Therefore, the increase of the above collagen content and LN-5 can achieve a certain role in resisting wrinkles, and plays an important role in the aging process of the skin. Therefore, the anti-wrinkle effect of the compound to be tested was evaluated by detecting the level of Collage I protein of […] by ELISA, and detecting the transcription levels of epidermal cells (keratinocytes) III, IV, VII and LN -5 by Real-Time PCR. The following Test Examples 8-1 and 8-2 evaluated the anti-wrinkle efficacy of compounds using HaCaT human immortalized keratinocytes and HSF human skin fibroblasts. […]
# [1] = tested on: wild-type AB strain zebrafish; assay: Zebrafish model, relieving anti-inflammatory efficacy (copper sulfate-induced, inflammatory cells at the neurothalamus); assay type: in vivo; settings: zebrafish 3 dpf, 40 µM copper sulfate model; effective concentrations 7.4, 22.2, and 66.6 µg/mL
# Method: (§2) Experimental animal: Healthy wild-type AB strain zebrafish at 3 dpf (days post fertilization)
# Evaluation of the relieving stinging efficacy: Healthy AB strain zebrafish were taken and randomly divided into four groups: blank control, modeling group, positive control, and sample group. […] After continuous treatment for a certain period, the zebrafish's behavioral trajectories were recorded using a behavior analyzer, and the changes in total movement distance and speed were statistically analyzed, the results are shown in FIGS. 2-4. […]
# Evaluation of the relieving anti-inflammatory efficacy: As described above, the modeling drug was 40 µM copper sulfate, the positive control drug was 200 µM asiaticoside, and the concentrations of I-8 were 66.6, 22.2, and 7.4 µg/mL respectively. After treating zebrafish as described above, inflammatory cells in their bodies were stained, the number of inflammatory cells at the neurothalamus was counted, and statistical analysis was performed.
# [2] = Permeability into skin using a Franz diffusion cell; assay type: in vitro ADME, Bama miniature pig; settings: for Concentration of the compound to be test in the skin, Mean / Concentration of the compound to be test in the skin, Skin-1 / Concentration of the compound to be test in the skin, Skin-2 / Concentration of the compound to be test in the skin, Skin-3: 0.1 mg/mL solution, 32 °C
# Method: Experimental materials: skin from the back of a one-month-old Bama miniature pig, 0.8-1.0 mm thick; 0.1 mg/mL solution of the compound to be test, dissolvent: 50 mM Sodium Phosphate Buffer (PB) buffer solution containing 20% ethanol.
# Experimental procedure: • 1. 400 uL solution of the compound to be test was pipetted into the feed cell, repeated three times. • 2. About 7600 uL of 50 mM PB buffer solution was added to the corresponding receiving cell. • 3. The compound to be test was permeated at 32 °C for 2 hrs and 6 hrs. • 4. At 2 hrs and 6 hrs, the skin was washed with 50 mM PB buffer solution containing 20% ethanol, the skin from the permeation area was removed and homogenized, and acetonitrile solution containing internal standard was added. • 5. Centrifugation was performed, 100 µL of the supernatant was taken and added into 100 µL of purified water, after mixing uniformly, quantitative analysis was performed by LC-MS/MS.
# [3] = tested on: wild-type AB strain zebrafish; assay: Zebrafish tail amputation model, inflammatory repair efficacy (inflammatory cells at the broken tail); assay type: in vivo; settings: I-8 at 1, 3, and 9 µg/mL, 48 hrs; compared with the modeling group, statistical significance
# Method: as §2
# Evaluation of wound repair efficacy: Healthy AB strain zebrafish were taken as experimental animal, and randomly divided into blank control group, modeling group, positive control group, and sample group. The zebrafish in the blank control group were treated with culture water; the zebrafish in the modeling group were treated with culture water after cutting the caudal fin; the zebrafish in the positive control group and sample group were treated with 600 µg/mL hyaluronic acid and I-8 with different concentrations (1, 3, 9 µg/mL) respectively after cutting the caudal fin. The larva fish in above groups were placed in a constant temperature incubator at 28.5 °C and kept in continuous darkness for 48 hrs, with the culture medium changed once every 24 hrs. […] The data were statistically analyzed using GraphPad software.
# Evaluation of inflammatory repair efficacy: As described above, the larva fish in each group were placed in a constant temperature incubator at 28.5 °C and kept in continuous darkness for 48 hrs. Inflammatory cells in the fish body were labeled with neutral red, and the number of inflammatory cells at the broken tail was counted. The data were statistically analyzed using GraphPad software.
# COL7A1 = assay: Collagen VII gene expression in HaCaT human immortalized keratinocytes; assay type: cell-based; settings: 24 hrs, dose-dependent
# Excerpt: as §1
smiles,measurement,setting,value
O=S1(=O)Oc2cc(O)ccc2-c2ccc(O)cc21 [Compound I-8],COL341 gene expression,COL3A1,upregulate
same,relieving anti-inflammatory efficacy,[1],certain relieving anti-inflammatory efficacy
same,"Concentration of the compound to be test in the skin, Mean",[2]; Time 2 h,7167 ng/g
same,"Concentration of the compound to be test in the skin, Skin-1",[2]; Time 2 h,7450 ng/g
same,"Concentration of the compound to be test in the skin, Skin-2",[2]; Time 2 h,6600 ng/g
same,"Concentration of the compound to be test in the skin, Skin-3",[2]; Time 2 h,7450 ng/g
same,"Concentration of the compound to be test in the skin, Mean",[2]; Time 6 h,11417 ng/g
same,"Concentration of the compound to be test in the skin, Skin-1",[2]; Time 6 h,13650 ng/g
same,"Concentration of the compound to be test in the skin, Skin-2",[2]; Time 6 h,10450 ng/g
same,"Concentration of the compound to be test in the skin, Skin-3",[2]; Time 6 h,10150 ng/g
same,permeation amount,[2]; within 6 hours,10 µg/g
same,number of inflammatory cells at the wound,[3],decreased
same,COL7A1 gene expression,COL7A1,upregulate
